From patent publication US20090036437A1, “PHARMACEUTICAL COMPOSITION COMPRISING PHENOXAZINIUM COMPOUND AS AN ACTIVE INGREDIENT” (priority 2005, published 2009)

Experiments:
[1] = tested on: Trypanosoma brucei rhodensiense (STIB 900 strain); test: in vitro growth-inhibiting screening assay, protozoa of African trypanosomiasis; assay type: cell-based
Experimental: This test was done using a trypomastigote of the protozoa of Trypanosoma brucei rhodensiense (STIB 900 strain) ranging in blood stream. MEM medium sterilized by filtration was supplemented with 25 mM of N-2-hydroxyethylpiperazine-2-ethanesulfonic acid (HEPES), 1 g/L of glucose, 1% of MEM non-essential amino acids, 0.2 mM of 2-mercaptoethanol, 2 mM of sodium pyruvate, 1 mM of hypoxathine and 15% of heat-treated horse serum. The protozoa were cultured under CO2 concentration of 5%, at 37° C.
A test sample was prepared by dissolving the test compounds according to the present invention and a positive control drug (Melarsoprol) in DMSO to a predetermined concentration. Culture medium containing the protozoa of 8×10^3, and the test sample comprising the predetermined amount of the test compound, and DMSO without the test compound were added into each well of 96-well culture plate to a final volume of 100 μL in duplicate.
After incubation of the culture plate for 72 hours in an incubator, a growth-inhibiting activity was assayed as follows. Alamar Blue aqueous solution (10 μL) was added to each well followed by a further two-hour culture. The culture plate was then attached to a fluorescence micro titer plate reader (Spectramax Gemeni XS; U.S. Molecular Device Co.), the intensity of fluorescence at 588 nm was detected with excitation wave length of 536 nm to calculate an infection ratio of the protozoa with respect to a group treated with the test sample and a control group. A growth-inhibiting ratio was then calculated from the resulting infection ratio in accordance with the following equation to determine 50% growth-inhibiting concentration (EC50).
Growth-inhibiting ratio (%)=[1−(b−a)/(c−a)]×100 • a: Initial infection ratio; • b: Infection ratio of the test sample group; and • c: Infection ratio of the control group.
A selective toxicity coefficient, which is used as an index for the selective toxicity for the protozoa of African trypanosomiasis, was calculated by the following equation, and the pharmaceutical effect was determined.
Selective toxicity coefficient=(EC50 value of the test sample for rat L6 cell)/(EC50 value of the test sample for the protozoa of African typanosomiasis)

[2] = in vitro growth-inhibiting assay of rat L6 cells; assay type: cell-based; conditions: rat; Table 8; read-out: 50% growth-inhibiting concentration (nM) cytotoxicity L6
Experimental: Rat L6 cell (rat skeletal myoblast cell) was cultured in RPMI-1640 culture medium supplemented with 1% of L-glutamine (200 mM) and fetal calf serum (10%) under 5% CO2 concentration at 37° C. A test sample was prepared by dissolving the test compounds according to the present invention and a positive control drug in DMSO to a predetermined concentration. After pre-culture had been finished, the culture medium containing the cells in a logarithmic phase was placed into each well of a 96-well culture plate, and the test sample comprising the predetermined amount of the test compound, and DMSO without the test compound were added to the wells in duplicate.
After incubation of the culture plate for 72 hours in an incubator, a growth-inhibiting activity was assayed as follows. Alamar Blue aqueous solution (10 μL) was added to each well followed by a further two-hour culture. The culture plate was then attached to a fluorescence micro titer plate reader (Spectramax Gemeni XS; U.S. Molecular Device Co.), and the intensity of fluorescence at 588 nm was detected with an excitation wave length of 536 nm. A residual ratio of L6 cells was calculated with respect to a group treated with the test sample and a control group. A growth-inhibiting ratio for L6 cells was then calculated from the resulting residual ratio in accordance with the following equation to determine 50% growth-inhibiting concentration (EC50).
Growth-inhibiting ratio (%)=[1−(C−A)/(B−A)]×100 • A: Initial number of cells; • B: Number of the cells in the control after 3 days; and • C: Number of the cells treated with the test sample after 3 days Determination of Pharmaceutical effect for Chloroquine-Resistant Malaria

**Q.** With Nc1nc(N)nc(Nc2ccc([As]3SCC(CO)S3)cc2)n1 (stereo not drawn) [Melarsoprol, reference compound] as the compound, how does the Selective toxicity ([1]; EC50 rat L6 cell / EC50 protozoa of African trypanosomiasis) read?
**A.** 1300

**Q.** What about the EC50 ([1]; Trypanosoma brucei, STIB900, 72 h, read-out: 50% growth-inhibiting concentration (nM) Trypanosoma brucei rhod.) of the same compound?
**A.** 6 nM

**Q.** What about the EC50 at 72 h [2] of the same compound?
**A.** 7800 nM
